≈ marks a conversion by molar mass, not a printed value. Like-named read-outs stand apart in the source and are kept apart here.
Experiments:
E. coli containing KPC-2 = assay: MIC by broth microdilution, E. coli containing KPC-2 (Ec KPC2 Iso); format: cell-based; settings: Escherichia coli, read-out: Ec KPC2 Iso (MIC), E. coli containing KPC-2 (carbapenemase from Klebsiella pneumoniae)
Description: (§1) Bacterial isolates were cultivated from −70° C. frozen stocks by two consecutive overnight passages at 35° C. in ambient air on 5% blood agar (Remel, Lenexa, Kans.). Quality control and P. aeruginosa ATCC 27853) is from the American Type Culture Collection (ATCC; Rockville, Md.) and PAO1 was received from Dr. K. Poole.
Strain NB27273 (BW25113 pspB::Km^r) was obtained from the Keio transposon insertion collection. The strain has the pspB gene replaced by a kanamycin resistance marker (BW25113 pspB::Km^r). This strain was cured of the transposon in pspB via FLP recombinase using published methodology. The resulting strain, BW25113 pspB, was used as a host for multicopy vectors expressing key β-lactamases. Multicopy plasmids directing constitutive expression of β-lactamases were established as follows: Synthetic, codon optimized genes encoding E. coli KPC2 and SHV12 β-lactamases were made by DNA2.0 (Palo Alto, Calif.). Each of the synthetic fragments were designed to contain NotI and NcoI restriction sites at their termini, allowing ligation into a NotI/NcoI digested pET28a(+) derivative for protein expression. […] The codon optimized nucleotide sequences and relevant primer recognition information is shown below:
The PCR products were then digested with XhoI and EcoRI and ligated into similarly digested plasmid pAH63-pstS(BlaP). Plasmid pAH63-pstS(BlaP) is a derivative of plasmid pAH63 (J Bacteriol: 183(21): 6384-6393) made by cloning the TEM-1 (bla) promoter and signal peptide encoding region from plasmid pBAD (J Bacteriol. 1995 July 177(14):4121-30) into plasmid pAH63. This fragment was PCR amplified from pBAD using primer pair E192 (ttca[…]) (SEQ ID NO:13) and E194 ([…]) (SEQ ID NO:14), digested with PstI and BamHI and inserted into similarly digested plasmid pAH63. Therefore, expression of β-lactamases from pAH63-pstS(BlaP) based constructs is constitutive and the signal sequence is provided to direct these proteins to the periplasm. Plasmid pAH63 based vectors are used for insertion into the genome in single copy, however, to provide higher expression levels to allow more sensitive detection of the susceptibility of compounds to the β-lactamases, the expression inserts contained in these vectors were moved to the replicative multicopy vector pBAD-Kan (J Bacteriol. 1995 July 177(14):4121-30). To accomplish this, the inserts encompassing the β-lactamase genes, with the associated TEM promoter and signal sequences, were PCR amplified from their corresponding vectors using primer E269 (ccg[…]) (SEQ ID NO:15) and E202 (aatc[…]) (SEQ ID NO:16) for the KPC2 construct and E204 (aatc[…]) (SEQ ID NO:17) for the SHV12 construct. These fragments were then digested with XbaI and EcoRI, and each was inserted into pBAD18-kan that had been digested with the same enzymes to generate a pair of multicopy vectors expressing KPC2 and SHV12 respectively. These vectors were transformed into BW25113 pspB to generate strains NB27273-CDY0033 (expressing KPC2) and NB27273-CDY0030 (expressing SHV12). The pBAD18-kan vector also contains the TEM promoter region and signal sequence, (but lacks any intact β-lactamase genes) and was transformed into BW25113 pspB using standard protocols to generate the control strain NB27273-CDY0026. Expression of the β-lactamases was confirmed by verifying decreased susceptibility to example test antibiotics that are known substrates of KPC2 or SHV12. Susceptibility Testing
Minimal Inhibitory Concentrations (MICs) were determined by the broth microdilution method in accordance with Clinical and Laboratories Institute (CLSI) guidelines. In brief, fresh overnight bacterial cultures were suspended in sterile saline, and adjusted to a 0.5 McFarland turbidity standard. Bacterial suspensions were then diluted in cation adjusted Mueller-Hinton Broth (MHB II; BBL) to yield a final inoculum of approximately 5×10^5 colony-forming units (CFU)/mL. […]

E. coli strain 25922 = assay: MIC by broth microdilution, E. coli strain 25922; format: cell-based
Description: as §1
Minimal Inhibitory Concentrations (MICs) were determined by the broth microdilution method in accordance with Clinical and Laboratories Institute (CLSI) guidelines. In brief, fresh overnight bacterial cultures were suspended in sterile saline, and adjusted to a 0.5 McFarland turbidity standard. Bacterial suspensions were then diluted in cation adjusted Mueller-Hinton Broth (MHB II; BBL) to yield a final inoculum of approximately 5×10^5 colony-forming units (CFU)/mL. A master plate of antibiotics was prepared at a concentration equivalent to hundred-fold the highest desired final concentration in 100% dimethyl sulfoxide (DMSO). The master antibiotic plate was then diluted by serial twofold dilution with a multichannel pipette. The resulting dilution series of compounds were diluted 1:10 with sterile water leading to a 10% DMSO final concentration. A volume of 10 μL of the drug dilution series was transferred to 96-well assay plates. Assay plates were inoculated with 90 μL of bacterial suspensions and incubated at 35-37° C. for 20 hrs. The assay plates were read using a microtiter plate reader (Molecular Devices) at 600 nm as well as by visual observation with a reading mirror. The lowest concentration of the compound that prevented visible growth was recorded as the MIC. Performance of the assay was monitored by testing aztreonam against laboratory quality control strains in accordance with guidelines of the CLSI.

[1] = Escherichia coli, 25922, E. coli strain 25922, read-out: Ec 25922 (MIC)

Row | SMILES | MIC (E. coli containing KPC-2) | MIC (E. coli strain 25922; [1]) | MIC (E. coli strain 25922; Escherichia coli, 25922, read-out: Ec 25922 (MIC))
1 | CC(C)(O/N=C(\C(=O)N[C@@H]1C(=O)N(S(=O)(=O)O)[C@@H]1Cn1ncc(CC#N)n1)c1csc(N)n1)C(=O)O [Example 33, 2-(((Z)-(1-(2-aminothiazol-4-yl)-2-(((2R,3S)-2-((4-(cyanomethyl)-2H-1,2,3-triazol-2-yl)methyl)-4-oxo-1-sulfoazetidin-3-yl)amino)-2-oxoethylidene)amino)oxy)-2-methylpropanoic acid] | 2 µg/mL (≈ 3.69 µM) | 2 µg/mL (≈ 3.69 µM) | –
2 | CC(C)(O/N=C(\C(=O)N[C@@H]1C(=O)N(S(=O)(=O)O)[C@@H]1Cn1ccc(N)n1)c1csc(N)n1)C(=O)O [Example 34, 2-(((Z)-(2-(((2R,3S)-2-((3-amino-1H-pyrazol-1-yl)methyl)-4-oxo-1-sulfoazetidin-3-yl)amino)-1-(2-aminothiazol-4-yl)-2-oxoethylidene)amino)oxy)-2-methylpropanoic acid] | > 64 µg/mL | > 64 µg/mL | –
3 | CC(C)(O/N=C(\C(=O)N[C@@H]1C(=O)N(S(=O)(=O)O)[C@@H]1Cn1cc(N)cn1)c1csc(N)n1)C(=O)O [Example 35, 2-(((Z)-(2-(((2R,3S)-2-((4-amino-1H-pyrazol-1-yl)methyl)-4-oxo-1-sulfoazetidin-3-yl)amino)-1-(2-aminothiazol-4-yl)-2-oxoethylidene)amino)oxy)-2-methylpropanoic acid] | 1 µg/mL (≈ 1.94 µM) | 2 µg/mL (≈ 3.87 µM) | –
4 | CC(C)(O/N=C(\C(=O)N[C@@H]1C(=O)N(S(=O)(=O)O)[C@@H]1Cn1ncc(C[N+]2(C)CCCC2)n1)c1csc(N)n1)C(=O)O [Example 36, (2R,3S)-3-((Z)-2-(2-aminothiazol-4-yl)-2-(((2-carboxypropan-2-yl)oxy)imino)acetamido)-2-((4-((1-methylpyrrolidin-1-ium-1-yl)methyl)-2H-1,2,3-triazol-2-yl)methyl)-4-oxoazetidine-1-sulfonate] | 1 µg/mL | 2 µg/mL | –
5 | CC(C)(O/N=C(\C(=O)N[C@@H]1C(=O)N(S(=O)(=O)O)[C@@H]1Cn1ncc(COC(N)=O)n1)c1csc(N)n1)C(=O)O [Example 37, 2-(((Z)-(1-(2-aminothiazol-4-yl)-2-(((2R,3S)-2-((4-((carbamoyloxy)methyl)-2H-1,2,3-triazol-2-yl)methyl)-4-oxo-1-sulfoazetidin-3-yl)amino)-2-oxoethylidene)amino)oxy)-2-methylpropanoic acid] | 2 µg/mL (≈ 3.47 µM) | 2 µg/mL (≈ 3.47 µM) | –
6 | CC(C)(O/N=C(\C(=O)N[C@@H]1C(=O)N(S(=O)(=O)O)[C@@H]1Cn1ncc(COS(=O)(=O)O)n1)c1csc(N)n1)C(=O)O [Example 38, 2-(((Z)-(1-(2-aminothiazol-4-yl)-2-oxo-2-(((3S,4R)-2-oxo-1-sulfo-4-((4-((sulfooxy)methyl)-2H-1,2,3-triazol-2-yl)methyl)azetidin-3-yl)amino)ethylidene)amino)oxy)-2-methylpropanoic acid] | 4 µg/mL (≈ 6.53 µM) | 8 µg/mL (≈ 13.1 µM) | –
7 | CC(C)(O/N=C(\C(=O)N[C@@H]1C(=O)N(S(=O)(=O)O)[C@@H]1CN1CCN=C1N)c1csc(N)n1)C(=O)O [Example 39, 2-(((Z)-(2-(((2R,3S)-2-((2-amino-4,5-dihydro-1H-imidazol-1-yl)methyl)-4-oxo-1-sulfoazetidin-3-yl)amino)-1-(2-aminothiazol-4-yl)-2-oxoethylidene)amino)oxy)-2-methylpropanoic acid] | > 64 µg/mL | 64 µg/mL (≈ 123 µM) | –
8 | CC(C)(O/N=C(\C(=O)N[C@@H]1C(=O)N(S(=O)(=O)O)[C@@H]1CN1CCN/C1=N\C#N)c1csc(N)n1)C(=O)O [Example 40, 2-(((Z)-(1-(2-aminothiazol-4-yl)-2-(((2R,3S)-2-(((E)-2-(cyanoimino)imidazolidin-1-yl)methyl)-4-oxo-1-sulfoazetidin-3-yl)amino)-2-oxoethylidene)amino)oxy)-2-methylpropanoic acid] | 2 µg/mL (≈ 3.68 µM) | 2 µg/mL (≈ 3.68 µM) | –
9 | CC(C)(O/N=C(\C(=O)N[C@@H]1C(=O)N(S(=O)(=O)O)[C@@H]1Cn1cc(CCN)nn1)c1csc(N)n1)C(=O)O [Example 41, 2-(((Z)-(2-(((2R,3S)-2-((4-(2-aminoethyl)-1H-1,2,3-triazol-1-yl)methyl)-4-oxo-1-sulfoazetidin-3-yl)amino)-1-(2-aminothiazol-4-yl)-2-oxoethylidene)amino)oxy)-2-methylpropanoic acid] | 2 µg/mL (≈ 3.67 µM) | 1 µg/mL (≈ 1.83 µM) | –
10 | CC(C)(O/N=C(\C(=O)N[C@@H]1C(=O)N(S(=O)(=O)O)[C@@H]1Cn1cc(CCN2CCNCC2)nn1)c1csc(N)n1)C(=O)O [Example 42, 2-(((Z)-(1-(2-aminothiazol-4-yl)-2-oxo-2-(((3S,4R)-2-oxo-4-((4-(2-(piperazin-1-yl)ethyl)-1H-1,2,3-triazol-1-yl)methyl)-1-sulfoazetidin-3-yl)amino)ethylidene)amino)oxy)-2-methylpropanoic acid] | 2 µg/mL (≈ 3.25 µM) | 1.4 µg/mL (≈ 2.28 µM) | –
11 | CC(C)(O/N=C(\C(=O)N[C@@H]1C(=O)N(S(=O)(=O)O)[C@@H]1Cn1cc(CNC(=O)C[N+](C)(C)C)nn1)c1csc(N)n1)C(=O)O [Example 43, (3S,4R)-3-((Z)-2-(2-aminothiazol-4-yl)-2-(((2-carboxypropan-2-yl)oxy)imino)acetamido)-2-oxo-4-((4-((2-(trimethylammonio)acetamido)methyl)-1H-1,2,3-triazol-1-yl)methyl)azetidine-1-sulfonate] | 2 µg/mL | 2 µg/mL | –
12 | CC(C)(O/N=C(\C(=O)N[C@@H]1C(=O)N(S(=O)(=O)O)[C@@H]1Cn1cc(CN)nn1)c1csc(N)n1)C(=O)O [Example 44, 2-(((Z)-(2-(((2R,3S)-2-((4-(aminomethyl)-1H-1,2,3-triazol-1-yl)methyl)-4-oxo-1-sulfoazetidin-3-yl)amino)-1-(2-aminothiazol-4-yl)-2-oxoethylidene)amino)oxy)-2-methylpropanoic acid] | 1.5 µg/mL (≈ 2.82 µM) | 0.67 µg/mL (≈ 1.26 µM) | –
13 | CC(C)(O/N=C(\C(=O)N[C@@H]1C(=O)N(S(=O)(=O)O)[C@@H]1Cn1cc(CNC(=N)N)nn1)c1csc(N)n1)C(=O)O [Example 45, 2-(((Z)-(1-(2-aminothiazol-4-yl)-2-(((2R,3S)-2-((4-(guanidinomethyl)-1H-1,2,3-triazol-1-yl)methyl)-4-oxo-1-sulfoazetidin-3-yl)amino)-2-oxoethylidene)amino)oxy)-2-methylpropanoic acid] | 0.5 µg/mL (≈ 0.872 µM) | – | 0.5 µg/mL (≈ 0.872 µM)
14 | CC(C)(O/N=C(\C(=O)N[C@@H]1C(=O)N(S(=O)(=O)O)[C@@H]1Cn1cc(CO)nn1)c1csc(N)n1)C(=O)O [Example 47, 2-(((Z)-(1-(2-aminothiazol-4-yl)-2-(((2R,3S)-2-((4-(hydroxymethyl)-1H-1,2,3-triazol-1-yl)methyl)-4-oxo-1-sulfoazetidin-3-yl)amino)-2-oxoethylidene)amino)oxy)-2-methylpropanoic acid] | 5 µg/mL (≈ 9.39 µM) | 2 µg/mL (≈ 3.76 µM) | –
